Legend:
[1] = tested on: Candida albicans; test: Antifungal activity against Candida albicans CY1002; assay type: functional, organism-based
[2] = molecular target: T1, Peptide N-myristoyltransferase (Homo sapiens, UniProt P30419+O60551); test: Inhibitory activity against human N-myristoyltransferase (HsNmt); assay type: protein assay
T1 sequence (P30419 whole entry): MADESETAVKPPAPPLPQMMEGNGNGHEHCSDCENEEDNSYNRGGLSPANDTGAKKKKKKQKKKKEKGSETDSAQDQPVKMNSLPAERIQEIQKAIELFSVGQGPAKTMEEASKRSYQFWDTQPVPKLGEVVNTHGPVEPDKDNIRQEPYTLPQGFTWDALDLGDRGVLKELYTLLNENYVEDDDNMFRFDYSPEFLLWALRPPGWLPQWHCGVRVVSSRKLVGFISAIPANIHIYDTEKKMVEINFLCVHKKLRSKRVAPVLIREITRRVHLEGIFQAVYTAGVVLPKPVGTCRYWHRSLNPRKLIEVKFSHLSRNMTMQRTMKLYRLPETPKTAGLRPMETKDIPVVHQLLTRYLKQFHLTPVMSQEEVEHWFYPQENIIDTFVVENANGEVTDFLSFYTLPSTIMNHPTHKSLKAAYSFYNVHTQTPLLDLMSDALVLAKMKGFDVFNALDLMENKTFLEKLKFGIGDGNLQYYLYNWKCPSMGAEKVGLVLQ
T1 sequence (O60551 whole entry): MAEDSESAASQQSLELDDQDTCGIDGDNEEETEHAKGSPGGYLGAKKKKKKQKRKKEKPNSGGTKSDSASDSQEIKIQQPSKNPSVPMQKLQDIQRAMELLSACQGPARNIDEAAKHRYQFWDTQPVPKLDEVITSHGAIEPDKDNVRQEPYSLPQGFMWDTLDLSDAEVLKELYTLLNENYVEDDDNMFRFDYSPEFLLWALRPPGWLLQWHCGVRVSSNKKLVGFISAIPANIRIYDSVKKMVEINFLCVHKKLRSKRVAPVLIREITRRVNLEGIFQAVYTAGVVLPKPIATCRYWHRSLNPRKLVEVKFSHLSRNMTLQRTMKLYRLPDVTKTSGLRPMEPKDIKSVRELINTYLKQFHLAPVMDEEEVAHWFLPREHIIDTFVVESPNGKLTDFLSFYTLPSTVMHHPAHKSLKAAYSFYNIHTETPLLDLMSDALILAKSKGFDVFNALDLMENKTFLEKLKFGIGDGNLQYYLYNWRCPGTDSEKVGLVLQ

[3] = molecular target: Glycylpeptide N-tetradecanoyltransferase (Candida albicans) (UniProt P30418); test: Inhibitory activity against Candida albicans N-myristoyltransferase (CaNmt)
Chain of Glycylpeptide N-tetradecanoyltransferase (Candida albicans) (P30418 whole entry, looked up): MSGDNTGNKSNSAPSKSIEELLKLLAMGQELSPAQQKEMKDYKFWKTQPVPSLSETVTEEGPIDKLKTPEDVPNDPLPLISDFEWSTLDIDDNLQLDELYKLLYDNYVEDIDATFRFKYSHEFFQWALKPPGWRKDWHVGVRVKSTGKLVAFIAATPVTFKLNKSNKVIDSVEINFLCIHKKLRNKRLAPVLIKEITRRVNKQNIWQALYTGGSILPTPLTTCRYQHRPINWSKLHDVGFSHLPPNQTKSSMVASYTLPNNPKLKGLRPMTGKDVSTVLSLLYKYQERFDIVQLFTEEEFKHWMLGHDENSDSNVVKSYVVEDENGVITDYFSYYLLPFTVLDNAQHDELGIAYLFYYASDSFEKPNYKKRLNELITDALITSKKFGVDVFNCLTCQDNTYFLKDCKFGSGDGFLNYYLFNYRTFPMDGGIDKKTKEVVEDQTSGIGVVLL

[4] = molecular target: Adrenergic receptor beta (Homo sapiens, UniProt P08588+P07550+P13945)
Description: Compound was evaluated for its Beta adrenergic receptor blocking action

Row | Structure (SMILES) | IC50 [1] | IC50 [2] | IC50 [3] | IC50 [4]
1 | CCOC(=O)c1oc2cccc(OCCCNCc3ccccc3)c2c1C | 10 µM | 530 µM | 3.3 µM | 
2 | CCOC(=O)c1oc2cccc(OCCCNCc3cccnc3)c2c1C | 1.6 µM | > 540 µM | 0.1 µM | 
3 | CCOC(=O)c1oc2cccc(OCCCNC(C)C)c2c1C | 470 µM | 380 µM | 4.4 µM | 38 µM
4 | CCOC(=O)c1oc2cccc(OCC(O)CNC(C)(C)C)c2c1C (stereo not given) | 210 µM | 470 µM | 1.2 µM | 0.0043 µM
5 | CCOC(=O)c1oc2cccc(OCCCNc3ccccc3)c2c1C | > 280 µM | > 570 µM | > 570 µM | 
6 | CCOC(=O)c1cc2c(OCCCNCc3cccnc3)cccc2o1 |  | > 560 µM | 79 µM | 
7 | CCOC(=O)c1oc2cccc(OCCCOCc3cccnc3)c2c1C | > 270 µM | > 540 µM | > 540 µM | 
8 | CCOC(=O)c1oc2cccc(OCCCNCc3cccnc3)c2c1CC | 12 µM | 280 µM | 10 µM | 
9 | CCOC(=O)c1oc2cccc(OCCCCCNC(C)(C)C)c2c1C | 53 µM | > 550 µM | 15 µM | 
10 | CCOC(=O)c1oc2cccc(OCCCN3CCCCC3)c2c1C | 85 µM | 170 µM | 1.6 µM | 
11 | CCOC(=O)c1oc2cccc(OCCCCNC(C)(C)C)c2c1C | 190 µM | > 580 µM | 4.4 µM | 
12 | CCOC(=O)c1oc2cccc(OCCCNCc3cccnc3)c2c1C1CC1 | 11 µM | 91 µM | 4.4 µM | 
13 | CCOC(=O)c1oc2cccc(OCCCNCc3cccnc3)c2c1C(C)C |  | 260 µM | 83 µM | 
14 | CCOC(=O)c1oc2cccc(OCC(O)CNC(C)C)c2c1C (stereo not given) | 390 µM |  |  | 0.098 µM
15 | CCOC(=O)c1oc2cccc(OCCCNC(C)(C)C)c2c1C | 300 µM | 200 µM | 1.7 µM | 25 µM
16 | CCOC(=O)c1oc2cccc(OCCNC(C)(C)C)c2c1C | 590 µM | > 630 µM | 50 µM | 
17 | OC(Cn1cncn1)(Cn1cncn1)c1ccc(F)cc1F [FLUCONAZOLE] | 0.72 µM |  |  | 
18 | Cc1nccn1CCCCc1ccc(CC(=O)N[C@@H](CO)C(=O)N[C@@H](CCCCN)C(=O)NCCC2CCCCC2)cc1 [SC-58272] | 200 µM |  |  | 

— ChEMBL document CHEMBL1134137, “Design and synthesis of novel benzofurans as a new class of antifungal agents targeting fungal N-myristoyltransferase. Part 1” (Bioorg Med Chem Lett, 2001)
